Holding throughout (format): in vivo
Test [1] in a line: Hatchability rate of turkey poults by HMB dosage injected in ovo (Example 10, FIG. 6). The protocol:
(§1) Three hundred commercial turkey eggs were stored for three weeks in a cooler at 55° F. and then placed in an egg incubator. After 24 days of incubation, eggs identified as fertile by candling the eggs were randomly assigned to 5 groups of 50 eggs. Each group of 50 eggs was then injected into the air cell at a depth of 0.25 inches with a 0.10 ml saline (0.89% NaCl) solution containing 0, 0.1, 1.0, 10.0, and 100.0 milligrams of Ca-HMB.
(§2) After injection, the eggs were placed in hatching baskets such that each treatment was equally represented in each location of the incubator. Hatched poults were recovered from the incubator at 28 days of incubation and the number of hatched poults per treatment group recorded. The hatched poults were then sacrificed and blood glucose was determined in accordance with known techniques (see Donaldson and Christensen, Comp. Biochem. Physiol. 98A, 347-350 (1991)). Livers were removed and glycogen content of each liver was determined by known techniques (see Dreiling et al., Meat Sci. 20, 167-177 (1987)).

The nature of test [2]: Plasma glucose of turkey poults by HMB dosage injected in ovo (Example 10, FIG. 8). As to conditions: turkey poults at hatch. The procedure:
as §1, §2

A short description of test [3]: Liver glycogen of turkey poults by HMB dosage injected in ovo (Example 10, FIG. 7). As to conditions: turkey poults at hatch; all HMB dosage levels (0.1-100.0 milligrams). The procedure:
as §1, §2

The text below walks through data of patent publication US8734837B2, “Enhancement of development of oviparous species by in ovo feeding of enteric modulators” (North Carolina State University, priority 2000, dated 2014).

Molecules are shown by their SMILES.

Turning to `CC(C)(O)CC(=O)O` [HMB, beta-hydroxy-beta-methylbutyrate], in test [1] (turkey eggs stored 3 weeks, 0.1 and 1.0 milligrams HMB in 0.1 ml saline into air cell at 24 days of incubation, control 72.3%), the Hatchability rate is recorded as 81.6%. Moreover, in test [1] (turkey eggs, HMB injected above 1.0 milligrams), the “Hatchability rate (in words)” value is listed as “hatchability rate decreased”. The “Plasma glucose concentration (in words)” value is “significantly increased plasma glucose concentration” in test [2] (0.1 milligram HMB dosage) and “no significant effect on plasma glucose” in test [2] (other HMB dosage levels (1.0, 10.0, 100.0 milligrams)). In test [3], the “Liver glycogen content, increase compared with the control treatment” value is on record as “about 40%”.
